Test results as given in ChEMBL document CHEMBL4680094, “Insights of a Lead Optimization Study and Biological Evaluation of Novel 4-Hydroxytamoxifen Analogs as Estrogen-Related Receptor γ (ERRγ) Inverse Agonists” (J Med Chem, 2016).

Assays:
[1] = biological target: T1, Steroid hormone receptor ERR1 (Homo sapiens, UniProt P11474); assay: Binding affinity to GST-tagged ERRalpha LBD (unknown origin) using fluorescein PGC1alpha as coactivator incubated for 1 hr by LanthaScreen TR-FRET co-regulator assay
T1 sequence (P11474 whole entry): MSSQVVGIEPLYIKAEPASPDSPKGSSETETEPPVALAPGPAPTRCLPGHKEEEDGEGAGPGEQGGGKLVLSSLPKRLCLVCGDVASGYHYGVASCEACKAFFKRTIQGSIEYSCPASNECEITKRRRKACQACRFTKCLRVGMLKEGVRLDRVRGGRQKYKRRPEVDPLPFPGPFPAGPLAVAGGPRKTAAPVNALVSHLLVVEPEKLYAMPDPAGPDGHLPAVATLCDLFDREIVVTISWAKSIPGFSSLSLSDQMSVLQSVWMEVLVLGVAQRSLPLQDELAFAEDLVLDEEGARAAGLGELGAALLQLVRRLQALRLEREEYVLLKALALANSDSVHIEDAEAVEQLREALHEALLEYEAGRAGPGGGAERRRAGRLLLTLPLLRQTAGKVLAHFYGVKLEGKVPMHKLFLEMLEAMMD

[2] = Metabolic stability in human liver microsome assessed as parent compound remaining at 1 uM incubated for 30 mins in presence of NADPH generating system by LC-MS/MS analysis; type: ADME; settings: liver microsomes, read-out: Stabilty
CYP1A2 = biological target: T2, CYP1A2 (Homo sapiens, UniProt P05177); assay: Inhibition of CYP1A2 in human liver microsomes assessed as reduction in phenacetin O-deethylase activity at 10 uM preincubated for 5 mins followed by addition of NADPH-regenerating system and measured after 15 mins by LC-MS/MS analysis relative to control; type: ADME; settings: probe phenacetin (O-deethylase activity), time 20 min
T2 sequence (P05177 whole entry): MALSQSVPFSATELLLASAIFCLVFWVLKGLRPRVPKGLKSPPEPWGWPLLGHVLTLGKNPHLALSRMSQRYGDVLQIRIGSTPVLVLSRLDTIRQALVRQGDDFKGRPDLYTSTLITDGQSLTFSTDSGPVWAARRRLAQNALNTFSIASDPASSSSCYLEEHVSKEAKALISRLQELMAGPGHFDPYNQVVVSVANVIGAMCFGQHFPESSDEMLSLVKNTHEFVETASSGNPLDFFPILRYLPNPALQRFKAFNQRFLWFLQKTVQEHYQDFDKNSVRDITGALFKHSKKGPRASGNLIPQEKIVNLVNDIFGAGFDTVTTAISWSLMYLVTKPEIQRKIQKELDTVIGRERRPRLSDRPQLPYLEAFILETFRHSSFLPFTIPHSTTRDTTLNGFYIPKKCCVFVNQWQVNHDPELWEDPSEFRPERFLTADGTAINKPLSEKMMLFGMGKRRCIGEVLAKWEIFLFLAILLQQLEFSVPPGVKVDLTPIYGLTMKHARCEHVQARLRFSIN

[3] = Effective permeability of compound at 10 uM in PBS buffer at pH 7.4 after 5 hrs by LC-MS/MS analysis based PAMPA method; type: ADME; settings: read-out: Peff
CYP2D6 = CYP2D6 (Homo sapiens, UniProt P10635); assay: Inhibition of CYP2D6 in human liver microsomes assessed as reduction in dextromethorphan O-demethylase activity at 10 uM preincubated for 5 mins followed by addition of NADPH-regenerating system and measured after 15 mins by LC-MS/MS analysis relative to control; type: ADME; settings: probe dextromethorphan (O-demethylase activity), time 20 min
CYP2C9 = CYP2C9 (Homo sapiens, UniProt P11712); assay: Inhibition of CYP2C9 in human liver microsomes assessed as reduction in tolbutamide 4-hydroxylase activity at 10 uM preincubated for 5 mins followed by addition of NADPH-regenerating system and measured after 15 mins by LC-MS/MS analysis relative to control; type: ADME; settings: probe tolbutamide (4-hydroxylase activity), time 20 min
Estrogen receptor = biological target: T3, Estrogen receptor (Homo sapiens, UniProt P03372); assay: Binding affinity to GST-tagged ERalpha LBD (unknown origin) using fluorescein PGC1alpha as coactivator incubated for 1 hr by LanthaScreen TR-FRET co-regulator assay
T3 sequence (P03372 whole entry): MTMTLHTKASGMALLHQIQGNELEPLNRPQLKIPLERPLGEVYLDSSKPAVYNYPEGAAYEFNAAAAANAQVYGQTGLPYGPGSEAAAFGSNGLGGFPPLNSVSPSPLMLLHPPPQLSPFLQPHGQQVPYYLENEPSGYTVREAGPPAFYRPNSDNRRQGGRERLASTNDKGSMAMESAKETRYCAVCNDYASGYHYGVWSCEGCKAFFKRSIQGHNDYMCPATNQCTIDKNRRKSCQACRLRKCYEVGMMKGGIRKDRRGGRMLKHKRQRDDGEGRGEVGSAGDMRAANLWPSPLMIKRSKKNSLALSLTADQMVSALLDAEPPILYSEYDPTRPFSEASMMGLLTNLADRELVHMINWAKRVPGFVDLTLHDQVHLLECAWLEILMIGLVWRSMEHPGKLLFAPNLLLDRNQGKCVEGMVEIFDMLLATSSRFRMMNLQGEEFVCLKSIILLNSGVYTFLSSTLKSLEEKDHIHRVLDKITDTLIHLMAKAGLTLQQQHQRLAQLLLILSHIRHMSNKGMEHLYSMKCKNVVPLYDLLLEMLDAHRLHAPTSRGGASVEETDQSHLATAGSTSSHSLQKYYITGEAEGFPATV

CYP2C19 = CYP2C19 (Homo sapiens, UniProt P33261); assay: Inhibition of CYP2C19 in human liver microsomes assessed as reduction in S-mephenytoin 4-hydroxylase activity at 10 uM preincubated for 5 mins followed by addition of NADPH-regenerating system and measured after 15 mins by LC-MS/MS analysis relative to control; type: ADME; settings: probe S-mephenytoin (4-hydroxylase activity), time 20 min
CAL-62 [4] = assay: Anticlonogenic activity against human CAL-62 cells assessed as colony forming units level in absence of [131I] at 20 uM incubated for 24 hrs by crystal violet staining based assay; type: ADME, cell-based; settings: cal-62, 24 h
[5] = biological target: T4, Steroid hormone receptor ERR2 (Homo sapiens, UniProt O95718); assay: Binding affinity to GST-tagged ERRbeta LBD (unknown origin) using fluorescein PGC1alpha as coactivator incubated for 1 hr by LanthaScreen TR-FRET co-regulator assay
T4 sequence (O95718 whole entry): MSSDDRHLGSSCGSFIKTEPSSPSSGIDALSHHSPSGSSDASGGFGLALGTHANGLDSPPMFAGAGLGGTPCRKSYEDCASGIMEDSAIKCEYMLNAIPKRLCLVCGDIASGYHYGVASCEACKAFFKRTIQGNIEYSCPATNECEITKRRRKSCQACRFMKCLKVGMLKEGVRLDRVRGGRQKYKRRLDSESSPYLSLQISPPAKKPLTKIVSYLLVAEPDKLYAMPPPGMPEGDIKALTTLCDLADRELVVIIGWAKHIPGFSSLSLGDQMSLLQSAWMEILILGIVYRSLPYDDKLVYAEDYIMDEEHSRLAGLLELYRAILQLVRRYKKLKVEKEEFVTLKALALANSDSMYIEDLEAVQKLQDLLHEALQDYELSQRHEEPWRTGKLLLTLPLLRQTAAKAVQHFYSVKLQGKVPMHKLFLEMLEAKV

CYP3A4 = CYP3A4 (Homo sapiens, UniProt P08684); assay: Inhibition of CYP3A4 in human liver microsomes assessed as reduction in midazolam 1-hydroxylase activity at 10 uM preincubated for 5 mins followed by addition of NADPH-regenerating system and measured after 15 mins by LC-MS/MS analysis relative to control; type: ADME; settings: probe midazolam (1-hydroxylase activity), time 20 min
CAL-62 [6] = assay: Potentiation of radioiodine therapy-mediated cytotoxicity against human CAL-62 cells assessed as colony forming units level in presence of [131I] at 20 uM preincubated for 24 hrs followed by [131I] addition and measured after 6 hrs by crystal violet staining based assay (reference value: 97.5 +/- 2%); type: functional; settings: time 30 hrs
[7] = Metabolic stability in rat liver microsome assessed as parent compound remaining at 1 uM incubated for 30 mins in presence of NADPH generating system by LC-MS/MS analysis; type: ADME; settings: liver microsomes, read-out: Stabilty
[8] = biological target: T5, Estrogen-related receptor gamma (Homo sapiens, UniProt P62508)
T5 sequence (P62508 whole entry): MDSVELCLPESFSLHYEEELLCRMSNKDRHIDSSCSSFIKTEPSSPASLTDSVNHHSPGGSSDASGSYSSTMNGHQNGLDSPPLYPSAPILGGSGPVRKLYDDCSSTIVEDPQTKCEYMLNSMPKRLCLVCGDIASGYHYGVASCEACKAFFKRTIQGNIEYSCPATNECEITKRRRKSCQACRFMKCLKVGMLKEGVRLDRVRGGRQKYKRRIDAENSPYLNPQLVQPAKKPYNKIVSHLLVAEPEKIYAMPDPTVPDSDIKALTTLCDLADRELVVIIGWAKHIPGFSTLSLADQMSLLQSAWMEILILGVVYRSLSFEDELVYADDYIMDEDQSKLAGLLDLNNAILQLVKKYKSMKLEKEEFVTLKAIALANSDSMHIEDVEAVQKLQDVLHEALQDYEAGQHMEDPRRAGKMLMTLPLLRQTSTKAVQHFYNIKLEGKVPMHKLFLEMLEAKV

[9] = biological target: Voltage-gated inwardly rectifying potassium channel KCNH2 (Homo sapiens, UniProt Q12809); assay: Inhibition of human ERG measured after 4 hrs by fluorescence polarization assay
Sequence of Voltage-gated inwardly rectifying potassium channel KCNH2 (Q12809 whole entry): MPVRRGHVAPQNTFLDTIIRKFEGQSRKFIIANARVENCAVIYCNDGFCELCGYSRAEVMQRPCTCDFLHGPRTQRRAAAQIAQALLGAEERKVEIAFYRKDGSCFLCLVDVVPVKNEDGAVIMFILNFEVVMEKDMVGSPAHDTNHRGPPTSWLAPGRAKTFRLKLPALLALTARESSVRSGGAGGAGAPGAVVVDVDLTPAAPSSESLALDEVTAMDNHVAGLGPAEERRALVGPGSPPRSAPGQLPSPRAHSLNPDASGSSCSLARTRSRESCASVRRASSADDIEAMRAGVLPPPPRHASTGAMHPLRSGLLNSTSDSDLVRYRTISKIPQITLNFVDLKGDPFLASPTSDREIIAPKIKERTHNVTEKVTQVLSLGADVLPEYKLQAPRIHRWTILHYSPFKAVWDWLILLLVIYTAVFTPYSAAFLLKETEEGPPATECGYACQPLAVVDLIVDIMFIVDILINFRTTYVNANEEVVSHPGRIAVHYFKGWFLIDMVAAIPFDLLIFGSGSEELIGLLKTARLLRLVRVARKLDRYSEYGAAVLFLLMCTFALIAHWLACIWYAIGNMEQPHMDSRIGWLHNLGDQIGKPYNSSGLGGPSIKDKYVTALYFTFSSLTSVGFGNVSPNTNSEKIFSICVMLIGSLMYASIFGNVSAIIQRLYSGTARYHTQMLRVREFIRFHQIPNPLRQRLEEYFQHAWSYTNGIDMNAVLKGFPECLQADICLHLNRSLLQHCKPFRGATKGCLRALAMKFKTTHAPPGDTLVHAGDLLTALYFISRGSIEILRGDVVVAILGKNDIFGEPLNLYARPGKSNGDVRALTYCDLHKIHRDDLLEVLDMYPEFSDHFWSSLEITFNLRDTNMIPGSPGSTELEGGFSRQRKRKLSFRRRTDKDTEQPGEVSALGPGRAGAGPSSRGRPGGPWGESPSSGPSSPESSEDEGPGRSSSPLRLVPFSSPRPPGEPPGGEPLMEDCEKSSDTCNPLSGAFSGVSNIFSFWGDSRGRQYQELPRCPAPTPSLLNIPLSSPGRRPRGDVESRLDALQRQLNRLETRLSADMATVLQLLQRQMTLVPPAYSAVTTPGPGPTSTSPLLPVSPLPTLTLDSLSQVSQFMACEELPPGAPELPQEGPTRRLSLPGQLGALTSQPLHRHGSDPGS

Sequence of CYP3A4 (P08684 whole entry): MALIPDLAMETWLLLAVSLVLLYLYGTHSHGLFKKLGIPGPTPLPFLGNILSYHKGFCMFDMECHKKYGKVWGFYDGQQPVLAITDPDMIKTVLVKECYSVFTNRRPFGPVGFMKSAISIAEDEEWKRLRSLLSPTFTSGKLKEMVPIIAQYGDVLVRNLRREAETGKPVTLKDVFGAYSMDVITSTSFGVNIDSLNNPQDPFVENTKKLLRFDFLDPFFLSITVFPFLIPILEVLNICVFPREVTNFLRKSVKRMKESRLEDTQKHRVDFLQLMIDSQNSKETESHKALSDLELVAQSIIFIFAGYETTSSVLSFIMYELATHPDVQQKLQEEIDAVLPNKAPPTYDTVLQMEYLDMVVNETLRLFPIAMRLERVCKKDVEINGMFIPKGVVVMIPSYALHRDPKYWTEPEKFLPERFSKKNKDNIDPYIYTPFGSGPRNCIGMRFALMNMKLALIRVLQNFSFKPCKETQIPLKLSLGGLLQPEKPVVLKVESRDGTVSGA
Sequence of CYP2C9 (P11712 whole entry, the tested form may be a part): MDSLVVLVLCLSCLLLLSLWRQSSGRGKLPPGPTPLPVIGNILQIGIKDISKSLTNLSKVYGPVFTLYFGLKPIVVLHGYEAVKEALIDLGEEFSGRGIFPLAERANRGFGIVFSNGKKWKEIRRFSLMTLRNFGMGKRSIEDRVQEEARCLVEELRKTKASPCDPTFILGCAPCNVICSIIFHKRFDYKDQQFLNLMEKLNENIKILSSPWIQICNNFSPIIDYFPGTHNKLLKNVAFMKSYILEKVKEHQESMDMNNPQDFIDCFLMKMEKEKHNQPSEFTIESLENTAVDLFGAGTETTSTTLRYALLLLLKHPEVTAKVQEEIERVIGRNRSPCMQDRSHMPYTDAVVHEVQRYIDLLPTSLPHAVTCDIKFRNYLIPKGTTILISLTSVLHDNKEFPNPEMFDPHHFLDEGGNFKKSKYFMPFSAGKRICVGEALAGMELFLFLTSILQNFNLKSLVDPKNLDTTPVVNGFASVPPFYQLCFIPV
Sequence of CYP2D6 (P10635 whole entry): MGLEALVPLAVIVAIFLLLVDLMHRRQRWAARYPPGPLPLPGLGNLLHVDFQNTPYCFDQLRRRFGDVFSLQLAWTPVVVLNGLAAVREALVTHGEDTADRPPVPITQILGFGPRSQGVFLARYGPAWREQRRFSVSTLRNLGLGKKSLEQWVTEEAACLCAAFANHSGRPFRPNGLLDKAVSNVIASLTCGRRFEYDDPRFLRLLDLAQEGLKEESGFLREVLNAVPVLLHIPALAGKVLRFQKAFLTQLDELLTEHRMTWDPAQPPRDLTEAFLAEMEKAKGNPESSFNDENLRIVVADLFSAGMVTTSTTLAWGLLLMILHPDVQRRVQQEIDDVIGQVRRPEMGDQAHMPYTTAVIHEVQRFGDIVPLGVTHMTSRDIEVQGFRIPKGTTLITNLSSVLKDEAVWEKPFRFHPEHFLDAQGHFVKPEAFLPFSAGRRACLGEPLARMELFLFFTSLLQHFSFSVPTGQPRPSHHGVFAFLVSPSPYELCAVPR
Sequence of CYP2C19 (P33261 whole entry): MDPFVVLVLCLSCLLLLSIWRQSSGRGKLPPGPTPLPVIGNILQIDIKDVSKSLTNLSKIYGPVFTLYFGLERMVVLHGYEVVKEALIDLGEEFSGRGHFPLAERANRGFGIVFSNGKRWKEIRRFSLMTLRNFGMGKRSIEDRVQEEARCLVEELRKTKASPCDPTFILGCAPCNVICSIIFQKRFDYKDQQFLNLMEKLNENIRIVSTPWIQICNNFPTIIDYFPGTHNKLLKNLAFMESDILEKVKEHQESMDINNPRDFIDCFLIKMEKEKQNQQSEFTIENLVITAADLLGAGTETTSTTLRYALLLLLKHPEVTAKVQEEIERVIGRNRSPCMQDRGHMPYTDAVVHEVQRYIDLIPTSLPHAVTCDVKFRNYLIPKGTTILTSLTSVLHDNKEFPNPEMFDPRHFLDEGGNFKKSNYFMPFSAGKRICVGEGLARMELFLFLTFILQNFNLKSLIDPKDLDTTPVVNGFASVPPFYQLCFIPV

| SMILES | IC50 [1] | remaining at 0.5 h, 1 µM [2] | inhibition at 0.25 h, 10 µM (CYP1A2) | Papp at 5 h, 10 µM [3] | inhibition at 0.25 h, 10 µM (CYP2D6) | inhibition at 0.25 h, 10 µM (CYP2C9) | IC50 (Estrogen receptor) | inhibition at 0.25 h, 10 µM (CYP2C19) | Activity (CAL-62 [4]) | IC50 [5] | inhibition at 0.25 h, 10 µM (CYP3A4) | Activity (CAL-62 [6]) | remaining at 0.5 h, 1 µM [7] | IC50 [8] | IC50 [9] |
| --- | --- | --- | --- | --- | --- | --- | --- | --- | --- | --- | --- | --- | --- | --- | --- |
| CN1CCC[C@H]1COc1ccc(/C(=C(/CCCO)c2ccccc2)c2ccc(O)cc2)cc1.Cl | > 10 µM | 24.8% | 0% | 2.11 ×10⁻⁶ cm/s | 9.3% | 37.2% | 1060 nM | 16.8% | 93% | 3.99 µM | 24.6% | 67.4% | 30.3% |  |  |
| CN1CCCC1CCOc1ccc(/C(=C(/CCCO)c2ccccc2)c2ccc(Br)cc2)cc1.Cl (configuration not stated) | 5.14 µM | 67.3% | 0% | 0.21 ×10⁻⁶ cm/s | 0% | 3% | 2970 nM | 10.6% |  | 8.88 µM | 9.8% |  | 59.9% | 296 nM | 1700 nM |
| CN1CCCC1CCOc1ccc(/C(=C(/CCCO)c2ccccc2)c2ccc(O)cc2)cc1.Cl (configuration not stated) | > 10 µM | 37.3% | 2.1% | 0.01 ×10⁻⁶ cm/s | 18.3% | 24.6% |  | 18.2% |  | 6.01 µM | 16.3% |  | 22.5% | 20 nM |  |
